Reference: paper PMC5182053 (Science Advances, 2016)

Molecular target: α-enolase (Homo sapiens, UniProt P06733)
Test: microscale thermophoresis with labeled recombinant protein
Type: binding

α-enolase, sequence (P06733 2-434): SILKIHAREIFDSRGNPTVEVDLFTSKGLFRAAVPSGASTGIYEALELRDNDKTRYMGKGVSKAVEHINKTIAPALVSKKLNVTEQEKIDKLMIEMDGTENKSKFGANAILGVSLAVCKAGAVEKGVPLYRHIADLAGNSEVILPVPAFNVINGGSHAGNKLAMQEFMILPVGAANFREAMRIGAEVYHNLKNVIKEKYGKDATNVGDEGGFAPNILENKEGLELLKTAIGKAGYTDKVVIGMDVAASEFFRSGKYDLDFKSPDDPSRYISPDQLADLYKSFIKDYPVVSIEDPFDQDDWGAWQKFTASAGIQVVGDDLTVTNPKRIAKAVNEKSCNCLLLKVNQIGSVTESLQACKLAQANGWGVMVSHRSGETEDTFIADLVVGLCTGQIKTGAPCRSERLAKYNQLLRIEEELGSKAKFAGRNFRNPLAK

Kd: 1.25 µM
SMILES: CCOC(=O)Oc1c(OC)cc(C(=O)O[C@@H]2C[C@@H]3CN4CCc5c([nH]c6cc(OC)ccc56)[C@H]4C[C@@H]3[C@H](C(=O)OC)[C@H]2OC)cc1OC [syrosingopine]
